Experimental data taken from the NIST ThermoML archive (doi:10.1021/acs.jced.8b00614).
Numbers after ± are expanded uncertainties.

Assays:
[1] = Liquid; for mass density: 298.2 K, 101.33 kPa, Vibrating tube method; for vapor or sublimation pressure: Chromatography
[2] = Boiling temperature at pressure P; settings: Liquid, Ebulliometric method (Recirculating still)
[3] = refractive index (Na D-line) (dimensionless); settings: 298.2 K; 101.33 kPa; Liquid; Standard Abbe refractometry

CC(C)CC(C)(C)C [2,2,4-trimethylpentane]
Settings | mass density [kg/m3] | refractive index
[1] | 687.73 ± 3.2 | –
[3] | – | 1.3891 ± 0.0036

Settings | Boiling temperature at pressure P [°C] | vapor or sublimation pressure [kPa]
[1], 307.2 K | – | 10 ± 0.8
[1], 317.2 K | – | 15.3 ± 1.2
[1], 327.2 K | – | 22.8 ± 1.8
[1], 350.2 K | – | 51.6 ± 4
[1], 360.2 K | – | 70.7 ± 5.5
[1], 370.2 K | – | 95 ± 7.4
[2], 5 kPa | 19.4 ± 0.4 | –
[2], 10 kPa | 34.0 ± 0.3 | –
[2], 20 kPa | 50.7 ± 0.2 | –
[2], 30 kPa | 61.4 ± 0.2 | –
[2], 40 kPa | 69.5 ± 0.2 | –
[2], 50 kPa | 76.1 ± 0.1 | –
[2], 60 kPa | 81.8 ± 0.1 | –
[2], 70 kPa | 86.7 ± 0.1 | –
[2], 80 kPa | 91.1 ± 0.1 | –
[2], 90 kPa | 95.2 ± 0.1 | –
[2], 99.7 kPa | 98.8 ± 0.1 | –

COC(C)(C)C [2-methoxy-2-methylpropane]
Settings | mass density [kg/m3] | refractive index
[1] | 735.38 ± 3.2 | –
[3] | – | 1.36632 ± 0.0036

Settings | Boiling temperature at pressure P [°C] | vapor or sublimation pressure [kPa]
[1], 307.2 K | – | 47.7 ± 3.7
[1], 317.2 K | – | 68.9 ± 5.3
[1], 327.2 K | – | 97.1 ± 7.5
[2], 20 kPa | 13.0 ± 0.2 | –
[2], 30 kPa | 22.2 ± 0.2 | –
[2], 40 kPa | 29.5 ± 0.1 | –
[2], 50 kPa | 35.2 ± 0.1 | –
[2], 60 kPa | 40.2 ± 0.1 | –
[2], 70 kPa | 44.5 ± 0.1 | –
[2], 79.9 kPa | 48.4 ± 0.1 | –
[2], 90 kPa | 51.8 ± 1.5 | –
[2], 99.7 kPa | 55.0 ± 1.5 | –

CCCCCO [pentan-1-ol]
Settings | mass density [kg/m3] | refractive index
[1] | 810.9 ± 3.2 | –
[3] | – | 1.40764 ± 0.0036

Settings | Boiling temperature at pressure P [°C] | vapor or sublimation pressure [kPa]
[1], 317.2 K | – | 1.1 ± 0.1
[1], 327.2 K | – | 2.1 ± 0.2
[1], 350.2 K | – | 8 ± 0.6
[1], 360.2 K | – | 13.3 ± 1
[1], 370.2 K | – | 21 ± 1.6
[2], 1.1 kPa | 44.2 ± 0.9 | –
[2], 5 kPa | 68.2 ± 0.6 | –
[2], 10 kPa | 81.4 ± 0.3 | –
[2], 20 kPa | 96 ± 0.2 | –
[2], 30 kPa | 105.2 ± 0.2 | –
[2], 40 kPa | 112.4 ± 0.1 | –
[2], 50 kPa | 118.2 ± 0.1 | –
[2], 60 kPa | 123.1 ± 0.1 | –
[2], 70 kPa | 127.2 ± 0.1 | –
[2], 79.9 kPa | 131.1 ± 0.1 | –
[2], 90 kPa | 134.6 ± 1.5 | –
[2], 99.7 kPa | 137.7 ± 1.5 | –
